According to article PMC5427923, “A novel CCR2 antagonist inhibits atherogenesis in apoE deficient mice by achieving high receptor occupancy” (Scientific Reports, 2017):
Entries after “also recorded” stand apart in the source; their conditions may differ. Where two headings read alike, the source gives them in different places.

Experiments:
[1] = test system: circulating CCR2+ monocytes; assay: Circulating blood cells (flow cytometry, hematology analyzer) in 15a treated apoE−/− mice; assay type: in vivo, mouse
Experimental: To determine the effect of the CCR2 antagonist on atherosclerotic lesion development, mice were fed a Western type diet, containing 0.25% cholesterol and 15% cocoabutter (SDS, Sussex, UK) throughout the experiment starting two week before surgery. Carotid artery plaque formation was induced by perivascular collar placement as described previously[46] and from the time of surgery, the mice received daily intraperitoneal injections containing 15a (5 mg/kg/day) or vehicle control (n = 9–10 per group). During the experiment, total body weight and weight gain were measured. Serum total cholesterol levels were determined using an enzymatic colorimetric assay according to manufacturer’s protocol (Roche Diagnostics). Precipath (standardized serum; Boehringer Mannheim, Germany) was used as an internal standard. Plasma cytokine levels were measured by ELISA according to manufacturer’s protocol (BD Biosciences). Blood was collected weekly via tail cut. Total cell count and cellular differentiation patterns in blood were analyzed using an automated XT-2000iV veterinary hematology analyzer (Sysmex Europe GMBH, Norderstedt, Germany). After erythrocyte lysis, blood leukocyte suspensions were stained for surface markers, after which their expression was determined by FACS analysis (FACS Canto, BD Biosciences). After 4 weeks of lesion development, the animals were anaesthetized and blood was collected. After in situ perfusion through the left cardiac chamber, the carotid arteries and hearts were harvested.

murine CCR2 (mCCR2) = biological target: T1, murine CCR2 (mCCR2) (Mus musculus, UniProt P51683); assay: [3H]INCB3344 association, dissociation and competition association (kinetic) assays on CHO-mCCR2 membranes; assay type: binding
T1 construct: expressed in transfected cells; host or cells: CHO cells, transient transfection (PEI) with pcDNA3.1+ plasmid; membrane preparation
T1 sequence (P51683 whole entry): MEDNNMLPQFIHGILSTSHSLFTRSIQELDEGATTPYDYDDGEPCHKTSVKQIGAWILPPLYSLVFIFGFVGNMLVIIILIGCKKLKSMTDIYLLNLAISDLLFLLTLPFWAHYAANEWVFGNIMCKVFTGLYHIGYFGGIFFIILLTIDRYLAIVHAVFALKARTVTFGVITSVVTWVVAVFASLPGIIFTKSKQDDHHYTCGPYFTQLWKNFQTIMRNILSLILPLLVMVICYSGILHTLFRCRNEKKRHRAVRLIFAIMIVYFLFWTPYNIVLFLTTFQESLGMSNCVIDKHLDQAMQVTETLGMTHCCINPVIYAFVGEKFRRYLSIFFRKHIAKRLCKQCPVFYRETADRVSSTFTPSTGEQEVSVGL
Experimental: Radioligand binding assays were performed in a 100 µL reaction volume containing 50 mM Tris-HCl buffer (pH 7.4), 5 mM MgCl2, 0.1% 3-[(3-cholamidopropyl)-dimethylammonio]-1-propanesulfonic acid (CHAPS), 5 nM [^3H]INCB3344 and 50 to 60 µg of membrane protein at 25 °C. Non-specific binding was determined with 10 μM of the cold ligand INCB3344. Displacement assays were carried out using 9 concentrations of competing ligand, ranging from 0.1 nM to 100 μM, for 120 min of incubation. The kinetic parameters of 15a were also determined at 25 °C using a competition association assay as previously described, [27]. For association and competition association experiments, CHO-mCCR2 membranes were added to the reaction volume at different time points, in the absence or presence of 30 nM of competing ligand. For dissociation experiments, CHO-mCCR2 membranes were first incubated with 5 nM [^3H]INCB3344 for 60 min. Dissociation was initiated by addition of 10 µM of INCB3344 at different time points. For all experiments, incubation was terminated by dilution with ice-cold 50 mM Tris-HCl buffer supplemented with 5 mM MgCl2 and 0.05% CHAPS. Separation of bound from free radioligand was performed by rapid filtration over a 96-well GF/B filter plate using a Perkin Elmer Filtermate-harvester (Perkin Elmer, Groningen, the Netherlands) in the case of displacement assays; or over GF/B filters using a Brandel harvester 24 (Brandel, Gaithersburg, MD, USA) for kinetic assays. Filter-bound radioactivity was determined by scintillation spectrometry after addition of Microscint scintillation cocktail (Perkin-Elmer, Groningen, the Netherlands). The P-E 2450 Microbeta2 plate counter (Perkin Elmer, Groningen, The Netherlands) was used for displacement assays, and the TRI Carb 2900 TR counter (Perkin Elmer, Groningen, The Netherlands) for kinetic assays.
All radioligand binding assays were analyzed using Prism 6.0 (GraphPad software, San Diego, CA, USA). All data shown represent means ± SEM of at least three independent experiments performed in duplicate. Ki values were calculated from IC50 values obtained by non-linear regression analysis of the displacement assays and by using the Cheng-Prusoff equation[47]. Dissociation rate constants k off were determined by fitting the dissociation data using an exponential decay model. Association rate constants k on were obtained by converting the apparent association rate constants k obs according to the equation k on = (k obs − k off)/[L], in which L is the radioligand concentration used for the experiments, k obs is the constant rate determined using exponential association analysis and k off represents the mean k off value obtained independently in the dissociation experiments. The kinetic profile of compound 15a was determined by calculation of its kinetic rate index (KRI) value. The KRI values were calculated according to the equation KRI = Bt1/Bt2, in which Bt represents the specific radioligand binding measured at t1 = 15 min and t2 = 210 min. In addition, the association and dissociation rates of 15a were obtained by nonlinear regression analysis of the competition association data using the equations described by Motulsky and Mahan[27]. […] In addition, the RT was calculated by obtaining the reciprocal of the k off. Data obtained from in vivo experiments are expressed as mean ± SEM. […] Non-Gaussian distributed data were analyzed using a two-tailed Mann-Whitney U test. […]

[2] = test system: leucocyte migration towards the peritoneal cavity; assay: Pilot study: leucocyte migration towards the peritoneal cavity; assay type: in vivo, mouse; details: data not shown
Experimental: To measure plasma concentrations of 15a over time, Western type diet fed mice were injected with 5 mg/kg 15a, after which blood samples were taken at fixed time points (1, 2, 6 and 24 hours after injection). Blood samples were processed as described below under “Measurement of 15a plasma levels”. The final dose of 5 mg/kg/day was based on a pilot study in which two different doses (1.5 and 5 mg/kg/day) were tested using leucocyte migration towards the peritoneal cavity as a read-out. […] In addition, the dose of 5 mg/kg was also based on a previous study with TAK-779[38], in which a dose of 5 mg/kg was used.

[3] = 4 weeks of treatment, 18 h after last injection

CC(C)[C@]1(C(=O)N2CCc3ccc(C(F)(F)F)cc3C2)CC[C@@H](N[C@@H]2CCc3cc(Br)ccc32)C1 [15a, ((1S,3R)-3-(((R)-5-bromo-2,3-dihydro-1H-inden-1-yl)amino)-1-isopropylcyclopentyl)(7-(trifluoromethyl)-3,4-dihydroisoquinolin-2(1H)-yl)methanone]
number of circulating CCR2+ monocytes ([1]; 5 mg/kg/day i.p., 4 weeks, 18 hour after the last injection, controls 14.9 ± 3.2): 4.5 ± 1.0 *10^3 cells/mL | percentage of circulating CCR2+ monocytes (CD11b+Ly6Glow cells) ([1]; 5 mg/kg/day i.p., two weeks of treatment, 2 hours after injection, controls 8.7 ± 1.2%): 1.8 ± 0.2% | increase in the amount of CD11b+Ly6ClowCX3CR1+ monocytes [1, 3]: 1.5 fold | ratio of patrolling CD11b+Ly6ClowCX3CR1+ versus inflammatory CD11b+Ly6ChighCCR2+ monocytes in blood [1, 3]: increased | reduction in circulating CCR2+ monocyte numbers ([1]; at 18 hours after treatment): > 60% | circulating total white blood cell (WBCs) count ([1]; at the time of sacrifice): No differences | total lymphocyte numbers ([1]; at the time of sacrifice): No differences; also recorded: remained unaffected | total neutrophil numbers ([1]; at the time of sacrifice): No differences; also recorded: remained unaffected | total number of (circulating) monocytes ([1]; at the time of sacrifice): significantly reduced | bone marrow monocyte subpopulations ([1]; data not shown): did not observe any effects | number of neutrophils, CD19+ B cells, CD4+ or CD8+ T cells in blood or spleen ([1]; flow cytometry, 18 hour after the last injection, data not shown): did not affect | splenic or circulating Tregs ([1]; flow cytometry, data not shown): nor did we detect any effects | percentage of circulating CCR5+ monocytes ([1]; treated and untreated mice): did not observe any change | kon (murine CCR2 (mCCR2); mCCR2, 25 °C): 117000 M⁻¹ s⁻¹ | KRI (kinetic rate index) (murine CCR2 (mCCR2); mCCR2, 25 °C, KRI = Bt1/Bt2, t1 = 15 min, t2 = 210 min): 1.6 | Kd (murine CCR2 (mCCR2); mCCR2, 25 °C, read-out: K D (kinetic, k off/k on)): 7.4 ± 1.5 nM | koff (murine CCR2 (mCCR2); mCCR2, 25 °C, read-out: k off (converted)): 0.00085 s⁻¹ | koff (murine CCR2 (mCCR2); mCCR2, corresponding to 0.051 min^−1, read-out: k off (as set for the simulations) (converted)): 0.00085 s⁻¹ | effective in inhibiting leucocyte migration ([2]; 1.5 mg/kg per day): not effective | effective in inhibiting leucocyte migration ([2]; 5 mg/kg per day): was
